Data taken from patent US20050113286A1, “Methods for treating congestive heart failure” (priority 2002, published 2005).
Entries after “also recorded” stand apart in the source; their conditions may differ.

Tests used:
aldosterone = test: FUSION I: serum aldosterone; type: in vivo, human
Source text: Surrogate measures with mechanistic implications included measures of serum aldosterone, serum endothelin-1, and serial measurements of ventricular function using ejection fractions derived from echocardiography. Pre-infusion aldosterone and endothelin-1 concentrations were collected and analyzed at a core lab (The Mayo Clinic, Rochester, Minn.) at weeks 1, 4, 8, and 12; post-infusion concentrations were collected at weeks 1 and 12. Left ventricular ejection fractions were serially measured and read at a core lab (Midwest Heart Foundation Echocardiographic Core Laboratory, Lombard, Ill.).

[1] = system: patients with chronic decompensated HF; test: FUSION I: safety and tolerability of serial outpatient nesiritide infusions; type: in vivo; details: for Patients discontinued from the study before week 12 because of an AE, number / Patients discontinued from the study prematurely due to an AE, %: primarily worsening HF
Method: The objective of the FUSION I study was to assess the safety and tolerability of nesiritide when administered in an outpatient setting as serial parenteral infusions to patients with chronic decompensated HF who were at high risk for hospitalization and were receiving established usual therapy for HF. The study compared usual care with usual care plus nesiritide given as 1 of 2 dosing strategies. All patients were evaluated weekly and treated in established HF clinics.
In this multicenter, open-label, pilot study, patients were randomly assigned to 1 of 3 treatment groups in a 1:1:1 ratio: (1) usual care, as determined by the investigating physician; (2) usual care plus nesiritide 0.005 μg/kg/min given for 4 to 6 hours, preceded by a 1.0-μg/kg bolus; or (3) usual care plus nesiritide 0.01 μg/kg/min given for 4 to 6 hours, preceded by a 2.0-μg/kg bolus (FIG. 1). The study treatment period was 12 weeks with an additional 4 weeks of follow-up. Nesiritide (Natrecor®) was supplied by Scios Inc., Fremont, Calif. Informed consent was obtained from each patient prior to enrollment, and the Ethics Committee of each institution prospectively approved the study.
All patients, regardless of treatment assignment, were required to have weekly clinic visits in an established HF clinic. If the patient had been randomized to nesiritide, half of the protocol-specified nesiritide dose was administered on the first weekly visit to assess safety. The 0.005 μg/kg/min nesiritide group received a 0.5 μg/kg bolus followed by a 0.0025 μg/kg/min infusion; and the 0.01 μg/kg/min nesiritide group received a 1.0 μg/kg bolus followed by a 0.005 μg/kg/min infusion. At subsequent visits (starting with week 2), the dose was increased to the protocol-specified dose for that group.
Nesiritide was administered as an IV bolus immediately followed by a fixed-rate infusion for 4 to 6 hours, based on the investigators' discretion, for 12 consecutive weeks. Before each infusion, the investigator assessed the patient's hydration status and HF symptoms as per the protocol. The investigator could choose the infusion frequency from once every other week to twice weekly based on hydration status and HF symptoms.
The primary goal of this open-label study was to assess the safety and tolerability of different nesiritide doses administered as serial outpatient infusions. Safety and tolerability were measured through investigator reporting of adverse events (AEs), serious AEs, discontinuations of study infusions, laboratory assessments, and vital signs. An AE was defined as any new onset or worsening of any medical condition since study entry. A serious AE were those AEs, which lead to death, hospitalization, or prolonged hospitalization. The effect of nesiritide infusions on renal function was also monitored as a safety variable, with renal AEs defined as increased blood urea nitrogen (BUN) or serum creatinine levels (determined by investigator's discretion), onset of oliguria, or occurrence of acute renal failure. Clinical events were followed to further evaluate safety and tolerability.

[2] = system: patients with chronic decompensated HF; test: FUSION I: quality of life, Minnesota Living With HF questionnaire; type: in vivo, human; details: weeks 4, 8, and 12
Method: (§1) At weeks 4, 8, and 12, the change from baseline global clinical status was assessed by both the patient and the investigator; assessments were rated on a 7-point ordinal scale from markedly worse (−3) to markedly better (+3).^1l,12 In addition, patients' assessment of quality of life was measured at baseline and at weeks 4, 8, and 12 using the Minnesota Living With HF questionnaire. (Rector TS, Kubo SH, Cohn J N. Patients' self-assessment of their congestive heart failure. Part 2: Content, reliability and validity of a new measure, The Minnesota Living with Heart Failure Questionnaire. Heart Failure 1987;October/November:198-209.)

[3] = system: patients with acutely decompensated congestive heart failure; details: in vivo; cited from earlier work
[4] = system: patients with chronic decompensated HF; test: FUSION I: global clinical status, 7-point ordinal scale; type: in vivo, human; details: for Investigators' assessment: Reported improvement from baseline (%): moderately or markedly improved; for Investigators' assessment: Mean change from baseline / Patients' assessment: Mean change from baseline: scale −3 to +3
Method: as §1

[5] = 0.005 μg/kg/min, n = 72, 819 infusions
[6] = 0.01 μg/kg/min, n = 69, 826 infusions
[7] = all nesiritide patients, n = 141
[8] = all nesiritide patients, n = 141, 1645 infusions
[9] = week 4, both nesiritide groups, count in cell 125
[10] = week 12, 0.01 μg/kg/min, count in cell 51

Nesiritide: a recombinant form of human B-type natriuretic peptide (BNP)
Post-infusion levels of aldosterone versus baseline (aldosterone; after the week 12 infusion, 0.01-μg/kg/min and all-nesiritide group, p<0.02 (FIG. 2A)): significant changes from baseline | Mean pre-infusion aldosterone values over time (aldosterone; any treatment group): no significant changes | Mean change from baseline (±standard deviation) in post-infusion aldosterone (aldosterone; week 1, 0.005-μg/kg/min): -5.0 ± 14.8 pg/mL | Mean change from baseline (±standard deviation) in post-infusion aldosterone (aldosterone; week 1, 0.01-μg/kg/min, p=0.02 compared to baseline): -10.9 ± 22.8 pg/mL | Mean post-infusion values of aldosterone versus baseline (aldosterone; weeks 1 and 12, both nesiritide groups): significant declines | Patients with infusion stopped due to adverse event, % ([1]; 0.005 μg/kg/min, n = 72): 6% | Patients with infusion stopped due to adverse event, number ([1]; 0.005 μg/kg/min, n = 72): 4 | Infusion completed, % of infusions [1, 5]: 99% | Infusion completed, number of infusions [1, 5]: 814 | Infusions stopped due to adverse event, % [1, 5]: < 1% | Infusions stopped due to adverse event, number [1, 5]: 4 | Patients discontinued from the study before week 12 because of an AE, number ([1]; 0.005 μg/kg/min): 7 | Patients discontinued from the study prematurely due to an AE, % ([1]; 0.005 μg/kg/min): 10% | Patients with infusion stopped due to adverse event, % ([1]; 0.01 μg/kg/min, n = 69): 7% | Patients with infusion stopped due to adverse event, number ([1]; 0.01 μg/kg/min, n = 69): 5 | Infusion completed, % of infusions [1, 6]: 99% | Infusion completed, number of infusions [1, 6]: 814 | Infusions stopped due to adverse event, % [1, 6]: < 1% | Infusions stopped due to adverse event, number [1, 6]: 7 | Patients discontinued from the study before week 12 because of an AE, number ([1]; 0.01 μg/kg/min): 2 | Patients discontinued from the study prematurely due to an AE, % ([1]; 0.01 μg/kg/min): 3% | Deaths considered related to study medication ([1]; 12-week treatment period): in no case | Adverse cardiovascular or renal events compared with usual care ([1]; RAS≧4 cohort): not associated with an increase; also recorded: tended to have a lower incidence | Patients with infusion stopped due to adverse event, % [1, 7]: 6% | Patients with infusion stopped due to adverse event, number [1, 7]: 9 | Infusion completed, % of infusions [1, 8]: 99% | Infusion completed, number of infusions [1, 8]: 1628 | Infusions stopped due to adverse event, % [1, 8]: < 1% | Infusions stopped due to adverse event, number [1, 8]: 11 | Infusion completed, number of infusions ([1]; all nesiritide patients, n = 141, 1645 infusions, listed as nesiritide): 1,628 | Safety and tolerability of serial outpatient infusions ([1]; both doses, 12 weeks, outpatient setting): similarly well tolerated; also recorded: safe and well tolerated | Frequency of observed AEs compared with usual-care group ([1]; either nesiritide group, through 12 weeks, all patients): no increase | Cardiovascular AEs, including symptomatic hypotension, and renal AEs compared to usual-care group ([1]; nesiritide groups, all patients): not increased | Quality of life, between treatment groups [2]: no significant differences | Quality of life compared with baseline ([2]; all treatment groups): significant improvement | Ventricular rhythm disturbances [3]: did not engender ventricular rhythm disturbances | Global clinical status, investigators' assessments, compared with usual-care group ([4]; 0.01-μg/kg/min group, p≦0.004 at all time points): significant improvement | Global clinical status, patients' assessments, among treatment groups ([4]; all treatment groups): no significant differences | Patients' assessment: Reported improvement from baseline (%) ([4]; week 4, 0.005 μg/kg/min, count in cell 62): 62 (50%) | Investigators' assessment: Reported improvement from baseline (%) ([4]; week 4, 0.005 μg/kg/min, count in cell 63): 63 (29%) | Investigators' assessment: Mean change from baseline ([4]; week 4, 0.005 μg/kg/min): 0.9 ± 1.28 | Patients' assessment: Mean change from baseline ([4]; week 4, 0.005 μg/kg/min): 1.3 ± 1.33 | Patients' assessment: Reported improvement from baseline (%) ([4]; week 4, 0.01 μg/kg/min, count in cell 63): 63 (51%) | Investigators' assessment: Reported improvement from baseline (%) ([4]; week 4, 0.01 μg/kg/min, count in cell 62): 62 (47%) | Patients' assessment: Mean change from baseline ([4]; week 4, 0.01 μg/kg/min): 1.4 ± 1.20 | Investigators' assessment: Mean change from baseline ([4]; week 4, 0.01 μg/kg/min, p < 0.05 compared with usual care): 1.1 ± 1.28 | Patients' assessment: Reported improvement from baseline (%) [4, 9]: 125 (50%) | Investigators' assessment: Reported improvement from baseline (%) [4, 9]: 125 (38%) | Patients' assessment: Mean change from baseline ([4]; week 4, both nesiritide groups): 1.4 ± 1.26 | Investigators' assessment: Mean change from baseline ([4]; week 4, both nesiritide groups, p < 0.05 compared with usual care): 1.0 ± 1.28 | Patients' assessment: Reported improvement from baseline (%) ([4]; week 8, 0.005 μg/kg/min, count in cell 53): 53 (72%) | Investigators' assessment: Reported improvement from baseline (%) ([4]; week 8, 0.005 μg/kg/min, count in cell 50): 50 (54%) | Patients' assessment: Mean change from baseline ([4]; week 8, 0.005 μg/kg/min): 1.7 ± 1.26 | Investigators' assessment: Mean change from baseline ([4]; week 8, 0.005 μg/kg/min, p < 0.05 compared with usual care): 1.3 ± 1.35 | Patients' assessment: Reported improvement from baseline (%) ([4]; week 8, 0.01 μg/kg/min, count in cell 56): 56 (68%) | Investigators' assessment: Reported improvement from baseline (%) ([4]; week 8, 0.01 μg/kg/min, count in cell 54): 54 (59%) | Patients' assessment: Mean change from baseline ([4]; week 8, 0.01 μg/kg/min): 1.8 ± 1.26 | Investigators' assessment: Mean change from baseline ([4]; week 8, 0.01 μg/kg/min, p < 0.05 compared with usual care): 1.6 ± 1.19 | Patients' assessment: Reported improvement from baseline (%) ([4]; week 8, both nesiritide groups, count in cell 109): 109 (70%) | Investigators' assessment: Reported improvement from baseline (%) ([4]; week 8, both nesiritide groups, count in cell 104): 104 (57%) | Patients' assessment: Mean change from baseline ([4]; week 8, both nesiritide groups): 1.8 ± 1.25 | Investigators' assessment: Mean change from baseline ([4]; week 8, both nesiritide groups, p < 0.05 compared with usual care): 1.4 ± 1.27 | Patients' assessment: Reported improvement from baseline (%) ([4]; week 12, 0.005 μg/kg/min, count in cell 54): 54 (76%) | Investigators' assessment: Reported improvement from baseline (%) ([4]; week 12, 0.005 μg/kg/min, count in cell 51): 51 (55%) | Patients' assessment: Mean change from baseline ([4]; week 12, 0.005 μg/kg/min): 1.9 ± 1.39 | Investigators' assessment: Mean change from baseline ([4]; week 12, 0.005 μg/kg/min, p < 0.05 compared with usual care): 1.4 ± 1.31 | Patients' assessment: Reported improvement from baseline (%) [4, 10]: 51 (55%) | Investigators' assessment: Reported improvement from baseline (%) [4, 10]: 51 (59%) | Patients' assessment: Mean change from baseline ([4]; week 12, 0.01 μg/kg/min): 1.7 ± 1.09 | Investigators' assessment: Mean change from baseline ([4]; week 12, 0.01 μg/kg/min, p < 0.05 compared with usual care): 1.7 ± 1.16 | Patients' assessment: Reported improvement from baseline (%) ([4]; week 12, both nesiritide groups, count in cell 105): 105 (66%) | Investigators' assessment: Reported improvement from baseline (%) ([4]; week 12, both nesiritide groups, count in cell 102): 102 (57%) | Patients' assessment: Mean change from baseline ([4]; week 12, both nesiritide groups): 1.8 ± 1.25 | Investigators' assessment: Mean change from baseline ([4]; week 12, both nesiritide groups, p < 0.05 compared with usual care): 1.5 ± 1.24
